The source of these data is paper PMC2901914 (Neuron, 2010).

This assay addresses T1, mouse I7 receptor (mI7) (Mus musculus, UniProt Q9QWU6).
T1 sequence (Q9QWU6 1-327): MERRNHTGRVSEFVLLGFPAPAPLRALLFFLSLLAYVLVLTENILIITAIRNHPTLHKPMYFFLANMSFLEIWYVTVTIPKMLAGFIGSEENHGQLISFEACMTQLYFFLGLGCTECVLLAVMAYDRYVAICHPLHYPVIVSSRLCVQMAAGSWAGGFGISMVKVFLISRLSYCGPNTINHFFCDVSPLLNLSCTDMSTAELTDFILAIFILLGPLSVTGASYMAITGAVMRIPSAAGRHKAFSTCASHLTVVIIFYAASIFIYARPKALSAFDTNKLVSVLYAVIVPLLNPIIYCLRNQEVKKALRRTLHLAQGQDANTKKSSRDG

`CCCCCCC=O` [7al, heptanal] showed an EC50 of around 6.3 µM.

Take `CCCCCCCC=O` [8al, octanal]: the EC50 was around 63.1 µM.
